For series [1], the system named is HepG2 cells. Nature of the series: Cytotoxicity, CellTiter Blue Cell Viability Assay (LD50). Type of series: cell-based. As for the experimental part: FIG. 3 provides a graphical illustration of an experimental approach used to assess candidate compounds. (1) Cells were plated and allowed to adhere for one day. At that time various concentrations of compound were added to cells and incubated for an additional 72 hours. […] (2) Cells were plated as above and treated with compound at the predetermined LD50 concentration. Following 24 hours incubation in the presence of compound, cells were collected, RNA was harvested and 3) analyzed using the RiboChip.
In an embodiment, human hepatocellular carcinoma HepG2 cells were used to test the effect of a compound on liver biology and toxicology. […] In an embodiment, a single acute dose of a compound is used. […] The choice of high dose identifies the possible modes of toxicity and detects low-incidence responses.
Cells were maintained as recommended in Minimal Essential Medium (MEM) (Gibco-BRL, a Division of Invitrogen, Carlsbad, Calif.) with 10% fetal bovine serum (FBS, HyClone, Logan, Utah) supplemented with antibiotics in p150 plates at 37° C., 5% CO2. Cells were split 1:5 and fresh media added every 3 days.
Cytotoxicity was assessed using the Alamar Blue-based CellTiter™ Blue Cell Viability Assay (Promega, Madison, Wis.) to determine the viable cell fraction that remained following a 72 hour treatment period. Cells (˜8,000 cells/well) were plated in 96 well BioCoat collagen coated plates (Becton Dickinson, Franklin Lakes, N.J.) using standard media. […] Cells were then allowed to recover for 24 hours at 37° C., 5% CO2. A two (2) fold dilution series was prepared for each compound starting at 3.0 mM in MEM containing 0.1% BSA (instead of 10% FBS) but without phenol red or antibiotics. Following the cell recovery period, the media was removed and fresh media containing compound was added. Treatments were performed in triplicate for each compound at each dose. Cells were incubated with compound for 72 hours at 37° C., 5% CO2. The viable cell fraction remaining was determined by washing the wells with fresh media without indicator, lysing the remaining live cells by adding 0.9% Triton X-100 (Sigma, St. Louis, Mo.) in water, and performing the Alamar Blue assay as described in the CellTiter™ Blue Cell Viability Assay product literature.

For series [2], the system named is CCR2 mRNA. Briefly: Quantitative Real Time PCR of CCR2 mRNA in TZD-treated cells. The conditions noted are these: HepG2 cells, LD50 concentration, 24 hours, compound alone.
For series [3], the system named is HepG2 cells. Briefly: Apoptosis, Apo-ONE Homogeneous Caspase-3/7 Assay. Type of series: cell-based, human. The conditions noted are these: 24 hours.
The conditions of series [4]: patients; Lebovitz 2002; cited from earlier work.
[5] abbreviates: HepG2 cells, concentration giving 50% cell death after 72 hours.

The values below come from patent US20060275816A1, “Methods for identifying drug pharmacology and toxicology” (priority 2005, published 2006).

“Also recorded” adds a separate entry of the source. Read-outs that look alike come from different tables or passages of the source.

In series [1], `O=C(Nc1ccccc1)c1cc([N+](=O)[O-])ccc1Cl` [GW-9662] displayed an LD50 of 125 µM.

With `CCCCCCCCCCCCCCC(Br)C(=O)O` (stereo not drawn) [2-Bromohexadecanoic Acid], in series [1] (setting [5]), the LD50 came out at 94 µM.

As for `CCCCC/C=C/C=C1/C(=O)C=C[C@@H]1C/C=C\CCCC(=O)O` [15-Deoxy-Δ^12,14-Prostaglandin J2], the LD50 in series [1] came to 34 µM.

On to `Cc1c(C)c2c(c(C)c1O)CCC(C)(COc1ccc(CC3SC(=O)NC3=O)cc1)O2` (stereo not drawn) [Troglitazone], for which the “increased CCR2 expression relative to control” value in series [2] is on record as 6 ×. Also, the “induction of apoptosis (Caspase 3/7 activity)” value (from here on “induction of apoptosis”) in series [3] is “potent inducers of apoptosis”. Besides, the “cell death at 175 μM” value in series [1] is reported as “significant cell death”. The same compound showed an LD50 in series [1] (setting [5]) of 18 µM. In addition, the “toxicity that ended marketing or development” value in series [4] is “hepatotoxicity”.

Consider `CCc1ccc(CCOc2ccc(CC3SC(=O)NC3=O)cc2)nc1` (stereo not drawn) [Pioglitazone], for which, in series [3], the “induction of apoptosis” value is reported as “did not induce apoptosis at all or only modestly did so; also recorded: undetectable”.

Regarding `CCCCC(CC)COC(=O)c1ccccc1C(=O)OCC(CC)CCCC` (stereo not drawn) [Diethylhexylphthalate], the LD50 in series [1] (setting [5]) is 34 µM.

As for `O=C(O)C(F)(F)C(F)(F)C(F)(F)C(F)(F)C(F)(F)C(F)(F)C(F)(F)F` [Perfluourooctanoic Acid], the LD50 in series [1] (setting [5]) was determined as 191 µM.

On to `Cc1cccc(Nc2cc(Cl)nc(SCC(=O)O)n2)c1C` [Wyeth14643], for which, in series [1], the LD50 was 226 µM.

Regarding `CCOC(=O)C(C)(C)Oc1ccc(Cl)cc1` [Clofibrate], in series [1] (setting [5]), the LD50 was determined as 240 µM.

As for `CN(CCOc1ccc(CC2SC(=O)NC2=O)cc1)c1ccccn1` (stereo not drawn) [Rosiglitazone], the “induction of apoptosis” value in series [3] was “did not induce apoptosis at all or only modestly did so”.

As for `CC(C)OC(=O)C(C)(C)Oc1ccc(C(=O)c2ccc(Cl)cc2)cc1` [Fenofibrate], the LD50 in series [1] (human, 72 h) was determined as 500 µM.

Consider `CC1(COc2ccc(CC3SC(=O)NC3=O)cc2)CCCCC1` (stereo not drawn) [Ciglitazone], for which the “induction of apoptosis” value in series [3] is “potent inducers of apoptosis”. In addition, the “cell death at 175 μM” value in series [1] is listed as “significant cell death”. The LD50 in series [1] (human, 72 h) is 76 µM.

Turning to `CC(C)(Oc1ccc(CCNC(=O)c2ccc(Cl)cc2)cc1)C(=O)O` [Bezafibrate], the LD50 in series [1] (setting [5]) came to 1940 µM.

On to “N-Acetly-Asp-Glu-Val-Asp-aldehyde [DEVD]”, for which, in series [3] (co-administered with TZDs), the “block of TZD-induced apoptosis” value is “efficiently blocked”.

`Cc1ccc(C)c(OCCCC(C)(C)C(=O)O)c1` [Gemfibrozil] displayed an LD50 in series [1] (setting [5]) of 163 µM.
